For the assay, the system named is corneal-limbal epithelial cells. Briefly: MTT conversion / proliferation of primary corneal-limbal epithelial cells. The settings on record: 40 μM Y27632 alone; FIG. 5D. The assay is classed as cell-based, human. From the text:
Cultures of non-transformed human corneal epithelial cells were established from either enzymatically-dissociated sample of corneal-scleral tissue or from pieces of intact corneal limbus seeded into culture dishes (i.e., explant method). In either case, corneal tissue from cadaveric donors was used. Each tissue sample was acquired with consent and ethics approval our HREC Approval No. 0800000807) in the form of either surgical cut-offs or intact corneas that had been rejected by the eye bank (e.g., poor endothelial cell density).
For dissociated cultures, washed tissue samples were cut into quarters before being incubated for 1 hour at 37° C. in 0.25% (w/v) Dispase solution (Life Technologies). Epithelial tissue was subsequently harvested from the limbus and peripheral cornea by scraping with a pipette tip, then dissociated by digestion in 0.05% Trypsin/0.02% EDTA (Sigma) for 5 minutes at 37° C. The resulting cell suspension was washed and resuspended in complete culture medium. […]
To initiate cultures from whole tissue, each well of a 6-well culture plate (approximately 6×10 cm^2) was initially filled with 2 mL, of 100% FBS and incubated for at least 30 minutes at 37° C. […] Over subsequent days, each p0 culture was routinely monitored for evidence of epithelial outgrowth until a confluent sheet measuring approximately 2-3 cm^2 had been achieved (approximately 1-2 weeks). […]

As to `C[C@@H](N)[C@H]1CC[C@H](C(=O)Nc2ccncc2)CC1` [Y27632], the “MTT conversion (cell proliferation)” value is reported as “dose-dependent increase in MTT conversion”.

The record behind these values is US11879012B2, “Method of modulating cell proliferation” (METRO NORTH HOSPITAL AND HEALTH SERVICE, priority 2018, dated 2024).
